Data taken from patent US8865623B2, “Herbicidally active cyclic diones and derivatives thereof, processes for their preparation, compositions, and method of controlling weeds” (Syngenta Limited, priority 2009, dated 2014).

Legend:
Type in all cases: in vivo
[1] = system: Lolium perenne (LOLPE); test: Post-emergence herbicidal activity, glasshouse pot test; details: Lolium perenne, 312 h, rate 250 g/ha, evaluated after 13 days, glasshouse, read-out: Post-emergence activity LOLPE (100=total damage to plant; 0=no damage to plant)
How it was run: (§1)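 Visual damage (0 = no damage, 100 = total damage) was rated 13 days after spraying. Treatment was applied one day after sowing for pre-emergence, or after 8 days of cultivation for post-emergence, as aqueous spray of an acetone/water (50:50) formulation with 0.5% Tween 20.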

[2] = system: Alopecurus myosuroides (ALOMY); test: as above; details: Alopecurus myosuroides, 312 h, rate 250 g/ha, evaluated after 13 days, glasshouse, read-out: Post-emergence activity ALOMY (100=total damage to plant; 0=no damage to plant)
How it was run: as §1

[3] = system: Avena fatua (AVEFA); test: as above; details: Avena fatua, 312 h, rate 250 g/ha, evaluated after 13 days, glasshouse, read-out: Post-emergence activity AVEFA (100=total damage to plant; 0=no damage to plant)
How it was run: as §1

[4] = system: Echinochloa crus-galli (ECHCG); test: as above; details: Echinochloa crus-galli, 312 h, rate 250 g/ha, evaluated after 13 days, glasshouse, read-out: Post-emergence activity ECHCG (100=total damage to plant; 0=no damage to plant)
How it was run: as §1

[5] = system: Lolium perenne (LOLPE); test: Pre-emergence herbicidal activity, glasshouse pot test; details: Lolium perenne, 312 h; Rate 250 g/ha; pre-emergence spray; evaluated after 13 days; read-out: Pre-emergence activity LOLPE (100=total damage to plant; 0=no damage to plant)
How it was run: as §1

[6] = system: Alopecurus myosuroides (ALOMY); test: as above; details: Alopecurus myosuroides, 312 h; Rate 250 g/ha; pre-emergence spray; evaluated after 13 days; read-out: Pre-emergence activity ALOMY (100=total damage to plant; 0=no damage to plant)
How it was run: as §1

[7] = system: Avena fatua (AVEFA); test: as above; details: Avena fatua, 312 h; Rate 250 g/ha; pre-emergence spray; evaluated after 13 days; read-out: Pre-emergence activity AVEFA (100=total damage to plant; 0=no damage to plant)
How it was run: as §1

[8] = system: Echinochloa crus-galli (ECHCG); test: as above; details: Echinochloa crus-galli, 312 h; Rate 250 g/ha; pre-emergence spray; evaluated after 13 days; read-out: Pre-emergence activity ECHCG (100=total damage to plant; 0=no damage to plant)
How it was run: as §1

| Compound | pest or weed control at 250 g/ha [1] [%] | pest or weed control at 250 g/ha [2] [%] | pest or weed control at 250 g/ha [3] [%] | pest or weed control at 250 g/ha [4] [%] | pest or weed control at 250 g/ha [5] [%] | pest or weed control at 250 g/ha [6] [%] | pest or weed control at 250 g/ha [7] [%] | pest or weed control at 250 g/ha [8] [%] |
| --- | --- | --- | --- | --- | --- | --- | --- | --- |
| CCc1ccc(Oc2ccc(Br)cc2Cl)cc1C1=C(O)[C@@H]2CC[C@](C)(C1=O)C2(C)C [Example A-240] | 60 | 30 | 40 | 70 | 70 | 30 | 0 | 70 |
| CCc1ccc(Oc2ccc(Br)c(Cl)c2)cc1C1=C(O)[C@@H]2CC[C@](C)(C1=O)C2(C)C [Example A-241] | 60 | 40 | 70 | 90 | 70 | 30 | 0 | 80 |
| CCc1ccc(Oc2ccc(Br)cc2Cl)cc1C1=C(O)[C@H]2CC[C@H](C2)C1=O [Example A-244] | 80 | 60 | 70 | 90 | 70 | 20 | 0 | 90 |
| CCc1ccc(Oc2cccc(Br)c2)cc1C1=C(O)[C@H]2CC[C@H](C2)C1=O [Example A-245] | 20 | 0 | 10 | 80 | 50 | 0 | 0 | 80 |
| CCc1ccc(Oc2ccc(F)c(Cl)c2)cc1C1=C(O)[C@H]2CC[C@H](C2)C1=O [Example A-246] | 20 | 50 | 60 | 100 | 60 | 70 | 50 | 100 |
| CCc1ccc(Oc2ccc(Br)c(Cl)c2)cc1C1=C(O)[C@H]2CC[C@H](C2)C1=O [Example A-247] | 100 | 90 | 100 | 100 | 90 | 90 | 50 | 100 |
| CCc1ccc(Oc2ccc(OC(F)(F)F)cc2)cc1C1=C(O)[C@H]2CC[C@H](C2)C1=O [Example A-248] | 100 | 100 | 100 | 100 | 100 | 90 | 80 | 100 |
| CCc1ccc(Oc2ccc(Cl)c(F)c2)cc1C1=C(O)[C@H]2CC[C@H](C2)C1=O [Example A-249] | 70 | 90 | 100 | 100 | 90 | 60 | 60 | 90 |
| CCc1ccc(Oc2ccc(Br)cc2F)cc1C1=C(O)[C@H]2CC[C@H](C2)C1=O [Example A-250] | 80 | 90 | 80 | 100 | 80 | 80 | 50 | 90 |
| CCc1ccc(Oc2cc(Cl)c3ccccc3n2)cc1C1=C(O)C(C)(C)OC(C)(C)C1=O [Example A-251] | 0 | 80 | 30 | 100 | 80 | 40 | 20 | 100 |
| CCc1ccc(Oc2nc3ccccc3cc2C)cc1C1=C(O)C(C)(C)OC(C)(C)C1=O [Example A-253] | 70 | 50 | 40 | 70 | 100 | 70 | 30 | 80 |
| CCc1ccc(Oc2cnc3cc(Cl)ccc3n2)cc1C1=C(O)[C@H]2CC[C@H](C2)C1=O [Example A-255] | 100 | 100 | 100 | 100 | 100 | 100 | 100 | 100 |
| CCc1ccc(Oc2ccc3cc(Br)ccc3n2)cc1C1=C(O)C(C)(C)OC(C)(C)C1=O [Example A-256] | 90 | 90 | 80 | 90 | 80 | 50 | 20 | 80 |
| CCc1ccc(Oc2ccc(F)c(Cl)c2)cc1C1=C(O)CC(C)(C)CC1=O [Example A-257] | 50 | 30 | 0 | 80 | 20 | 0 | 0 | 40 |
| CCc1ccc(Oc2ccc(Br)c(Cl)c2)cc1C1=C(O)CC(C)(C)CC1=O [Example A-258] | 80 | 70 | 70 | 100 | 30 | 30 | 10 | 70 |
| CCc1ccc(Oc2ccc3cc(Cl)ccc3n2)cc1C1=C(O)[C@H]2CC[C@H](C2)C1=O [Example A-260] | 80 | 90 | 100 | 90 | 90 | 80 | 0 | 90 |
| CCc1ccc(Oc2ccc3cc(Cl)ccc3n2)cc1C1=C(O)CC(C)(C)CC1=O [Example A-261] | 100 | 90 | 100 | 100 | 80 | 80 | 50 | 90 |
| CC1(C)OC(C)(C)C(O)=C(c2cc(Oc3ccc(Cl)cc3Cl)ccc2C2CC2)C1=O [Example A-262] | 60 | 80 | 50 | 90 | 70 | 30 | 0 | 70 |
| CCc1ccc(Oc2ncc(Cl)cn2)cc1C1=C(O)CC2(CCOCC2)CC1=O [Example A-263] | 60 | 100 | 90 | 100 | 50 | 60 | 20 | 100 |
| CCc1ccc(Oc2nc3ccc(OC)cc3s2)cc1C1=C(O)CC2(CCOCC2)CC1=O [Example A-264] | 100 | 90 | 90 | 100 | 90 | 90 | 80 | 100 |
| CCc1ccc(Oc2nc3ccc([N+](=O)[O-])cc3s2)cc1C1=C(O)CC2(CCOCC2)CC1=O [Example A-265] | 70 | 70 | 70 | 100 | 80 | 60 | 0 | 90 |
